According to ChEMBL document CHEMBL3507680, “University of Dundee, Gates Library screen for HepG2 cell viability”:

Experiment: Human HepG2 cell viability assay in 384 well format
Type: toxicity, cell-based
Set-up: dose 125 nL, time 70.5 hour; concentration not given beside the values
Conditions: HepG2 cells, read-out: Inhibition

Row | SMILES | cytotoxicity at 70.5 h [%]
1 | CC(C(=O)N1CCCN(c2ccc(C#N)cc2)CC1)n1ccnc1 (centres undefined) | -1.24
2 | CCN(Cc1ccc2c(c1)OCO2)C(=O)c1ccc(C)[nH]c1=O | 35.4
3 | NC(=O)CC1CCN(C(=O)CCOc2ccc(Cl)cc2)CC1 | -1.2
4 | COc1c(CNCc2ccc(N(C)C)nc2)c(C(C)C)nn1C | 1.68
5 | Cc1nc2ccccc2c(=O)n1CCC(=O)N1CCSCC1 | -4.52
6 | COCC(=O)NC(C)Cc1cccc(Br)c1 (centres undefined) | 33.7
7 | Cc1nn(C)c(N(C)C)c1CNC1CCOc2c(F)cccc21 (centres undefined) | 13.3
8 | COC1CCN(C(=O)Cc2csc(-c3ncccn3)n2)CC1 | -3.38
9 | Cc1cccc(C(=O)NC(CN2CCCC2=O)c2ccccc2)n1 (centres undefined) | 0.515
10 | CCn1c(CN2CCN(CC(N)=O)CC2)nc2c(F)cccc21 | -0.996
11 | CCNc1cc2c(nn1)CCN(C(=O)c1ccc3cc[nH]c3c1)C2 | 2.8
12 | COc1c(CNC(c2nccn2C)C(C)C)c(C)nn1C (centres undefined) | -6.48
13 | CS(=O)(=O)N1CCCCCC1C1CCN(c2ncccc2C#N)CC1 (centres undefined) | -0.285
14 | Cn1cc(CNC2CCCN(Cc3noc(C4CC4)n3)C2)cn1 (centres undefined) | 3.36
15 | CC(O)CN1CCN(C(=O)c2ccc(Br)o2)CC1 (centres undefined) | -19.8
16 | COc1cccc(COCC(O)CN2CC(n3cccn3)C2)c1 (centres undefined) | -6.05
17 | N#CC1(C(=O)N2CCN(c3nccs3)CC2)CCCCC1 | -10.1
18 | CCOc1ccccc1OC1CCN(C(=O)c2ccc(=O)[nH]n2)CC1 | -7.24
19 | N#Cc1ccnc(N2CCN(C(=O)Cc3ccc4c(c3)CCO4)CC2)c1 | -7.76
20 | Cc1nn(C)c(N2CCOCC2)c1CNCc1nccs1 | -6.17

Row | SMILES | cytotoxicity at 70.5 h [%]
21 | CC(C)Oc1ncccc1CNC(=O)N1CCC(C(N)=O)C1 (centres undefined) | -12.5
22 | O=C(c1ccc(-n2ccnc2)nc1)N1CCCC(n2cccn2)C1 (centres undefined) | 1.69
23 | Cc1nnc2n1CCN(Cc1ncc(-c3ccc(Cl)cc3)o1)C2 | -11
24 | c1cnn(C2CN(Cc3nc(-c4ccsc4)no3)C2)c1 | -11.9
25 | COc1ccc(-c2cnc(CN3CCn4c(C)nnc4C3)o2)cc1 | 22.7
26 | Cc1cc(C)c(CNC(=O)NCCOc2ccc3c(c2)CCC3)c(=O)[nH]1 | -9.44
27 | CC(C(=O)NCc1ccnc(N2CCN(C)CC2)c1)n1cccn1 (centres undefined) | -5.91
28 | Cc1cc(C2CCCN2C(=O)c2cc3c(s2)CCC3)on1 (centres undefined) | -16.3
29 | c1cnc(-c2nc(CNCCn3cccn3)cs2)nc1 | 8.63
30 | c1ccc(-c2noc(CN3CCOC(Cn4cccn4)C3)n2)nc1 (centres undefined) | -8.08
31 | CCc1nc(CN2CCCC(NCc3nc4cccnc4[nH]3)C2)no1 (centres undefined) | 18.9
32 | CNS(=O)(=O)Cc1ccc(CNC(=O)Nc2cccnc2)cc1 | 13.3
33 | O=C(Nc1ccccn1)C1=NN(c2ccccc2)C(=O)CN1 | 45.9
34 | CC(=O)N1CCN(C(=O)CCCc2nc(C(C)C)no2)CC1 | 11.7
35 | CC(C(=O)NCCOc1cccc(Cl)c1)n1cncn1 (centres undefined) | -9.41
36 | CC(Cn1ccnc1)NC(=O)C1(c2ccc3c(c2)OCCO3)CCCC1 (centres undefined) | 14.5
37 | CC(Cn1cccn1)NC(=O)NCCc1cnn(C)c1 (centres undefined) | -16.3
38 | CNS(=O)(=O)Cc1ccc(CNC(=O)Nc2cn[nH]c2)cc1 | -11.3
39 | Cc1ccc(S(=O)(=O)Nc2ccc(=O)n(C)c2)cc1 | -13.1
40 | COc1cccc(C2CCCN2Cc2nc3c(cnn3C)c(=O)[nH]2)c1 (centres undefined) | -1.55

Row | SMILES | cytotoxicity at 70.5 h [%]
41 | Cc1ccc(C2CCCN2Cc2nc3c(cnn3C)c(=O)[nH]2)cc1C (centres undefined) | -15.6
42 | CC(Cn1ccnc1)NC(=O)C1(c2ccc(F)cc2)CC1 (centres undefined) | -8.11
43 | COc1ccc2c(c1)CN(Cc1nc3c(cnn3C)c(=O)[nH]1)CC2 | 45.5
44 | O=C(CN1CCC(N2CCNC2=O)CC1)NCC(F)(F)F | -11.3
45 | COC(=O)c1ccc(N2CCN(C(=O)c3cc(C)on3)C(C)C2)cc1 (centres undefined) | -15.3
46 | COC(=O)c1ccc(N2CCN(C(=O)c3cnn(C)c3)C(C)C2)cc1 (centres undefined) | 16.7
47 | CC(C)c1ccc(C(C)NC(=O)N2CCC(n3cncn3)CC2)cc1 (centres undefined) | -13.4
48 | Cc1cnn(CCNCC(O)COc2c(C)ccc(C)c2C)c1 (centres undefined) | -5.42
49 | CNc1cc2c(nn1)CCN(C(=O)C1CCCc3ccccc31)C2 (centres undefined) | -19
50 | Cn1cc(C2CCCN2C(=O)CCCOc2ccc(F)cc2F)cn1 (centres undefined) | -11.3
51 | CN(CC(=O)N1CCCC1Cn1cccn1)C1CC1 (centres undefined) | -14.3
52 | CN1CCN(C2CCN(CC(=O)NCC(F)(F)F)CC2)C1=O | -6.61
53 | Cc1cc(C(C)NC(=O)N2CCC(n3cncn3)CC2)c(C)s1 (centres undefined) | -17.7
54 | CC(Cn1cccn1)NC(=O)N(C)Cc1ccc(Cl)s1 (centres undefined) | -16.6
55 | CCCc1noc(CN2CCCC2c2ccsc2)n1 (centres undefined) | -17.8
56 | CN(CC(=O)N1CCCC1Cn1cccn1)c1cnccn1 (centres undefined) | -19.4
57 | Clc1snnc1CN1CCCCC1Cn1cncn1 (centres undefined) | 11.8
58 | c1cnn(CCN2CCOC(Cn3cncn3)C2)c1 (centres undefined) | 6.43
59 | COc1c(C)cnc(CN2CCCCC2Cn2nc(C)nc2C)c1C (centres undefined) | 16.8
